Laboratory results: ChEMBL document CHEMBL1212814, “Polyamines in drug discovery: from the universal template approach to the multitarget-directed ligand design strategy” (J Med Chem, 2010)

Test: Inhibition of amyloid beta (1-40) aggregation by thioflavin T based fluorometric assay

| IC50 | Compound |
| --- | --- |
| 5.93 µM | CCN(CCCCCCNC1=CC(=O)C(NCCCCCCN(CC)Cc2ccccc2OC)=CC1=O)Cc1ccccc1OC [MEMOQUIN] |
| 60.3 µM | CN(C)[C@@H]1C(O)=C(C(N)=O)C(=O)[C@@]2(O)C(O)=C3C(=O)c4c(O)cccc4[C@@](C)(O)[C@H]3C[C@@H]12 [TETRACYCLINE] |
